Laboratory results published in PMC6245188, “Isolation and Characterization of Phenolic Compounds from the Leaves of Salix matsudana” (Molecules, 2008).
Read-outs that look alike come from different tables or passages of the source.

Assays:
[1] = molecular target: T1, COX-2 (Homo sapiens, UniProt P35354); assay: Effect on cyclooxygenase-2 (PGE2 production from 14C-arachidonic acid, HPLC radioactivity detection); assay type: biochemical; settings: for IC50 of COX-2 / IC50: means of three determinations, 30 min at 37 °C, Tris-HCl pH 8.0, I.A. = Inactive; for inhibitory effect on COX-2 (in words): qualitative statement
T1 construct: purchased Cayman Chemical (Michigan, US)
T1 sequence (P35354 18-604): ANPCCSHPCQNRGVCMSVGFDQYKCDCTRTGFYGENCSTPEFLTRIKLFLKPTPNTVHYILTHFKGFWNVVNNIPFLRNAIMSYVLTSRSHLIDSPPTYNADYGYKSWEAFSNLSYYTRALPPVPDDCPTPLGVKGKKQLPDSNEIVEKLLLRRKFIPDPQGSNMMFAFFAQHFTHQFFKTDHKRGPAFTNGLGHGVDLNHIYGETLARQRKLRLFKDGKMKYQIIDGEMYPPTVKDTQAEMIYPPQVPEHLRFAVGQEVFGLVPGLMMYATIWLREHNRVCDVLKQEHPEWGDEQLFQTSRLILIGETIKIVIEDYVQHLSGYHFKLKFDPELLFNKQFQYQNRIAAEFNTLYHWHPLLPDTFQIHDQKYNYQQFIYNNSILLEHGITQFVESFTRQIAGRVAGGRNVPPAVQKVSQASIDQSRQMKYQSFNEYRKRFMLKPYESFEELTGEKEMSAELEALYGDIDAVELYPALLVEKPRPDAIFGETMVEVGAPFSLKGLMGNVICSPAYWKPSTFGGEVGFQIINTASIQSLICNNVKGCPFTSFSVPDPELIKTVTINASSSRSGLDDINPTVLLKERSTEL
Description: (§1) COX-1 and COX-2 were purchased from Cayman Chemical (Michigan, US). The ^14C-labeled arachidonic acid (>200 µCi, NEN) was purchased from New England Nuclear Co. (Boston, US). Other chemicals and reagents were purchased from the Chinese Chemical Group (Beijing, P.R. China).
(§2) The effect of the tested compounds on cyclooxygenase-1 and -2 (COX-1 and -2) was determined by measuring PGE2 production. […] 1-^14C Arachidonic acid (10 µL) was added to start the reaction. The mixture was incubated for 30 min at 37 °C, then, the reaction was terminated by adding the reaction mixture (20 µL) to 30 µM indomethacin (200 µL). Arachidonic acid and its radio-labeled metabolites were separated and determined by reversed-phase HPLC using a Berthold radioactivity monitor. Inhibition refers to reduction of PGE2 formation, in comparison to a blank run without inhibitor. The results are means of three independent experiments.

[2] = molecular target: T2, COX-1 (Ovis aries, UniProt P05979); assay: Effect on cyclooxygenase-1 (PGE2 production from 14C-arachidonic acid, HPLC radioactivity detection); assay type: biochemical
T2 construct: purchased Cayman Chemical (Michigan, US)
T2 sequence (P05979 25-600): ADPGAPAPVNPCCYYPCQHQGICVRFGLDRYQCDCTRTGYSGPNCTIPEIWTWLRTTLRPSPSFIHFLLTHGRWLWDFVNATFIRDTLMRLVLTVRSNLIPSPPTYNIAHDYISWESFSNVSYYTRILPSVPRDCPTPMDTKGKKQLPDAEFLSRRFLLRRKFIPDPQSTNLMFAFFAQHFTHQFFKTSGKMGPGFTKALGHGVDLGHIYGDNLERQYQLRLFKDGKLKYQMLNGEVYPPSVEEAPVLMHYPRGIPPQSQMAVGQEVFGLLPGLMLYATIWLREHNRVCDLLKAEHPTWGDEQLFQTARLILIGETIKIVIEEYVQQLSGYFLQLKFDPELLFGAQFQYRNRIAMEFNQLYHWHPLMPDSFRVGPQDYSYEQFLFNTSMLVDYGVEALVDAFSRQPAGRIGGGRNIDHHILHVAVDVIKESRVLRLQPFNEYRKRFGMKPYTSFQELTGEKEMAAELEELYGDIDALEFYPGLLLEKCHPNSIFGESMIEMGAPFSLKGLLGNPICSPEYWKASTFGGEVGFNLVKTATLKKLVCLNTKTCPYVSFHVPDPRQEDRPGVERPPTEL
Description: as §1, §2

[3] = means of three determinations, 30 min at 37 °C, Tris-HCl pH 8.0, I.A. = Inactive, read-out: IC50 of COX-1
[4] = means of three determinations, 30 min at 37 °C, Tris-HCl pH 8.0, I.A. = Inactive

IC50 of COX-2 [1] | IC50 [2, 3] [µM] | IC50 [1] [µM] | inhibitory effect on COX-2 (in words) [1] | IC50 [2] [µM] | Structure (SMILES) | IC50 of COX-1 [2, 4]
I.A. | 217 |  |  |  | CC(=O)c1ccc(OC2OC(CO)C(O)C(O)C2O)cc1 (stereo not drawn) [Compound 8, piceoside] | 
I.A. |  |  |  |  | O=c1cc(-c2ccc(O)c(O)c2)oc2cc(O)cc(O)c12 [Compound 2, luteolin] | I.A.^b
 | 99.1 | 169 |  |  | COc1ccc2c(=O)cc(-c3ccccc3)oc2c1 [Compound 4, 7-methoxyflavone] | 
 | 195 | 200 |  |  | COc1cc(O)cc(OC)c1OC1OC(CO)C(O)C(O)C1O (stereo not drawn) [Compound 7, leonuriside A] | 
 | 92.3 | 39.1 | potent inhibitory effect |  | O=c1cc(-c2ccc(O)c(O)c2)oc2cc(O[C@@H]3O[C@H](CO)[C@@H](O)[C@H](O)[C@H]3O)cc(O)c12 [Compound 5, luteolin 7-O-glucoside] | 
 | 153 | 27.3 | potent inhibitory effect |  | CC1(C)C=Cc2c(cc(O)c3c(=O)c(OC4OC(CO)C(O)C(O)C4O)c(-c4ccc(O)c(O)c4)oc23)O1 [Compound 1, 7,8-(2'', 2''-dimethylpyrano)-5, 3', 4'-trihydroxy-flavone-3-O-β-D-glucoside] | 
 |  |  |  | 103 | O=c1c(O[C@@H]2O[C@H](CO)[C@@H](O)[C@H](O)[C@H]2O)c(-c2ccc(O)c(O)c2)oc2cc(O)cc(O)c12 [Compound 3, isoquercitrin] | 

Structure (SMILES) | IC50 of COX-2 [1] | IC50 [2, 3] [µM] | IC50 [1] [µM] | inhibitory effect on COX-2 (in words) [1] | IC50 [2] [µM] | IC50 of COX-1 [2, 4]
O=c1cc(-c2ccc(O)cc2)oc2cc(O)ccc12 [Compound 6, 4',7-dihydroxyflavone] |  |  | 58.8 | potent inhibitory effect |  | I.A.
